Reference: patent US8076487B2, “Pyridone derivative and herbicide” (Kumiai Chemical Industry Co., Ltd., priority 2006, dated 2011)

Assays:
Format in all cases: in vivo
[1] = test system: early watergrass (Echinochloa oryzicola Vasing); assay: Test Example 1: herbicidal effect by soil application to paddy field; details: paddy field soil application; active ingredient 1,000 g per 1 hectare; wettable powder added dropwise to water surface the day after sowing; examined on the 21st day after application
Method in brief: (§1)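 Plants were sown in flooded (3 cm) paddy soil and evaluated for herbicidal effect 21 days after soil application in a greenhouse.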

[2] = test system: Japanese bulrush (Scirpus juncoides Roxb.); assay: as above; details: paddy field soil application; active ingredient 1,000 g per 1 hectare; wettable powder added dropwise to water surface the day after sowing; examined on the 21st day after application
Method in brief: as §1

[3] = test system: heartshape false pickerelweed (Monochoria vaginalis (Burm.f.) C.Presl); assay: as above; details: paddy field soil application; active ingredient 1,000 g per 1 hectare; wettable powder added dropwise to water surface the day after sowing; examined on the 21st day after application
Method in brief: as §1

[4] = test system: green foxtail (Setaria viridis (L.) P. Beauv.); assay: Test Example 3: herbicidal effect by application to upland field (foliage treatment); details: 14th day after application; for herbicidal effect, Green Foxtail: foliage treatment, 1,000 g active ingredient per 1 hectare, greenhouse
Method in brief: (§2)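 Plants were sown in field soil and raised in a greenhouse for two weeks before foliar spraying. A water-diluted wettable powder was applied at 1,000 g active ingredient per hectare in 1,000 liters per hectare. Herbicidal effect was scored on a standard scale 14 days later.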

[5] = test system: slender amaranth (Amaranthus viridis L.); assay: as above; details: 14th day after application; for herbicidal effect, Slender Amaranth: foliage treatment, 1,000 g active ingredient per 1 hectare, greenhouse
Method in brief: as §2

[6] = test system: velvetleaf (Abutilon theophrasti medicus); assay: as above; details: 14th day after application; for herbicidal effect, Velvetleaf: foliage treatment, 1,000 g active ingredient per 1 hectare, greenhouse
Method in brief: as §2

[7] = test system: barnyardgrass (Echinochloa crus-galli (L.) P. Beauv. var. crus-galli); assay: as above; details: 14th day after application; for herbicidal effect, Barnyardgrass: foliage treatment, 1,000 g active ingredient per 1 hectare, greenhouse
Method in brief: as §2

[8] = test system: green foxtail (Setaria viridis (L.) P. Beauv.); assay: Test Example 2: herbicidal effect by soil application to upland field; details: soil surface spray, upland field soil, 1,000 g active ingredient per hectare, 21st day after application
Method in brief: (§3)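 In this soil-application test, sown and soil-covered pots are sprayed uniformly with the formulation diluted in water, giving 1,000 g of active ingredient per ha in a volume of 1,000 L per ha. Plants then grow in a greenhouse for 21 days before herbicidal scoring by a standard scale.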

[9] = test system: slender amaranth (Amaranthus viridis L.); assay: as above; details: soil surface spray, upland field soil, 1,000 g active ingredient per hectare, 21st day after application
Method in brief: as §3

[10] = test system: velvetleaf (Abutilon theophrasti medicus); assay: as above; details: soil surface spray, upland field soil, 1,000 g active ingredient per hectare, 21st day after application
Method in brief: as §3

[11] = test system: barnyardgrass (Echinochloa crus-galli (L.) P. Beauv. var. crus-galli); assay: as above; details: soil surface spray, upland field soil, 1,000 g active ingredient per hectare, 21st day after application
Method in brief: as §3

[12] = foliage treatment, plants grown two weeks, 1,000 g active ingredient per hectare

C=CCn1c(C(F)(F)F)ccc(C(=O)C2=C(O)CCCC2=O)c1=O [I-11]
herbicidal effect, Echinochloa oryzicola Vasing [1]: 5 (90% or more of herbicidal effect and crop phytotoxicity) | herbicidal effect, Scirpus juncoides Roxb. [2]: 5 (90% or more of herbicidal effect and crop phytotoxicity) | herbicidal effect, Monochoria vaginalis (Burm. f.) C. Presl [3]: 5 (90% or more of herbicidal effect and crop phytotoxicity) | herbicidal effect (index), Green Foxtail [4, 12]: 5 (90% or more of herbicidal effect and crop phytotoxicity) | herbicidal effect (index), Slender Amaranth [5, 12]: 5 (90% or more of herbicidal effect and crop phytotoxicity) | herbicidal effect (index), Velvetleaf [6, 12]: 5 (90% or more of herbicidal effect and crop phytotoxicity) | herbicidal effect (index), Barnyardgrass [7, 12]: 5 (90% or more of herbicidal effect and crop phytotoxicity) | herbicidal effect (index), Green Foxtail [8]: 4 (70 to less than 90% of herbicidal effect and crop phytotoxicity) | herbicidal effect (index), Slender Amaranth [9]: 5 (90% or more of herbicidal effect and crop phytotoxicity) | herbicidal effect (index), Velvetleaf [10]: 5 (90% or more of herbicidal effect and crop phytotoxicity) | herbicidal effect (index), Barnyardgrass [11]: 5 (90% or more of herbicidal effect and crop phytotoxicity)

O=C1CCCC(O)=C1C(=O)c1ccc(C(F)(F)F)n(NCC2CCCO2)c1=O (stereo not drawn) [I-170]
herbicidal effect, Echinochloa oryzicola Vasing [1]: 5 (90% or more of herbicidal effect and crop phytotoxicity) | herbicidal effect, Scirpus juncoides Roxb. [2]: 5 (90% or more of herbicidal effect and crop phytotoxicity) | herbicidal effect, Monochoria vaginalis (Burm. f.) C. Presl [3]: 5 (90% or more of herbicidal effect and crop phytotoxicity) | herbicidal effect, Green Foxtail [4]: 4 (70 to less than 90% of herbicidal effect and crop phytotoxicity) | herbicidal effect, Slender Amaranth [5]: 5 (90% or more of herbicidal effect and crop phytotoxicity) | herbicidal effect, Velvetleaf [6]: 5 (90% or more of herbicidal effect and crop phytotoxicity) | herbicidal effect, Barnyardgrass [7]: 5 (90% or more of herbicidal effect and crop phytotoxicity) | herbicidal effect (index), Green Foxtail [8]: 5 (90% or more of herbicidal effect and crop phytotoxicity) | herbicidal effect (index), Slender Amaranth [9]: 5 (90% or more of herbicidal effect and crop phytotoxicity) | herbicidal effect (index), Velvetleaf [10]: 5 (90% or more of herbicidal effect and crop phytotoxicity) | herbicidal effect (index), Barnyardgrass [11]: 5 (90% or more of herbicidal effect and crop phytotoxicity)

COC(C)Cn1c(C(F)(F)F)ccc(C(=O)C2=C(O)C3CCC(C3)C2=O)c1=O (stereo not drawn) [III-24]
herbicidal effect, Echinochloa oryzicola Vasing [1]: 5 (90% or more of herbicidal effect and crop phytotoxicity) | herbicidal effect, Scirpus juncoides Roxb. [2]: 5 (90% or more of herbicidal effect and crop phytotoxicity) | herbicidal effect, Monochoria vaginalis (Burm. f.) C. Presl [3]: 5 (90% or more of herbicidal effect and crop phytotoxicity) | herbicidal effect, Green Foxtail [4]: 5 (90% or more of herbicidal effect and crop phytotoxicity) | herbicidal effect, Slender Amaranth [5]: 5 (90% or more of herbicidal effect and crop phytotoxicity) | herbicidal effect, Velvetleaf [6]: 5 (90% or more of herbicidal effect and crop phytotoxicity) | herbicidal effect, Barnyardgrass [7]: 5 (90% or more of herbicidal effect and crop phytotoxicity) | herbicidal effect (index), Green Foxtail [8]: 5 (90% or more of herbicidal effect and crop phytotoxicity) | herbicidal effect (index), Slender Amaranth [9]: 5 (90% or more of herbicidal effect and crop phytotoxicity) | herbicidal effect (index), Velvetleaf [10]: 5 (90% or more of herbicidal effect and crop phytotoxicity) | herbicidal effect (index), Barnyardgrass [11]: 5 (90% or more of herbicidal effect and crop phytotoxicity)

O=C1CCCC(O)=C1C(=O)c1ccc(C(F)(F)F)n(CCc2ccccc2)c1=O [I-129]
herbicidal effect, Echinochloa oryzicola Vasing [1]: 5 (90% or more of herbicidal effect and crop phytotoxicity) | herbicidal effect, Scirpus juncoides Roxb. [2]: 5 (90% or more of herbicidal effect and crop phytotoxicity) | herbicidal effect, Monochoria vaginalis (Burm. f.) C. Presl [3]: 4 (70 to less than 90% of herbicidal effect and crop phytotoxicity) | herbicidal effect, Green Foxtail [4]: 5 (90% or more of herbicidal effect and crop phytotoxicity) | herbicidal effect, Slender Amaranth [5]: 5 (90% or more of herbicidal effect and crop phytotoxicity) | herbicidal effect, Velvetleaf [6]: 5 (90% or more of herbicidal effect and crop phytotoxicity) | herbicidal effect, Barnyardgrass [7]: 5 (90% or more of herbicidal effect and crop phytotoxicity) | herbicidal effect (index), Green Foxtail [8]: 4 (70 to less than 90% of herbicidal effect and crop phytotoxicity) | herbicidal effect (index), Slender Amaranth [9]: 5 (90% or more of herbicidal effect and crop phytotoxicity) | herbicidal effect (index), Velvetleaf [10]: 5 (90% or more of herbicidal effect and crop phytotoxicity) | herbicidal effect (index), Barnyardgrass [11]: 5 (90% or more of herbicidal effect and crop phytotoxicity)

Cn1ncc(C(=O)c2ccc(C(F)(F)F)n(C)c2=O)c1OC(=O)OCc1ccc(Cl)cc1 [IV-200]
herbicidal effect, Echinochloa oryzicola Vasing [1]: 5 (90% or more of herbicidal effect and crop phytotoxicity) | herbicidal effect, Scirpus juncoides Roxb. [2]: 5 (90% or more of herbicidal effect and crop phytotoxicity) | herbicidal effect, Monochoria vaginalis (Burm. f.) C. Presl [3]: 5 (90% or more of herbicidal effect and crop phytotoxicity) | herbicidal effect, Green Foxtail [4]: 3 (50 to less than 70% of herbicidal effect and crop phytotoxicity) | herbicidal effect, Slender Amaranth [5]: 5 (90% or more of herbicidal effect and crop phytotoxicity) | herbicidal effect, Velvetleaf [6]: 5 (90% or more of herbicidal effect and crop phytotoxicity) | herbicidal effect, Barnyardgrass [7]: 4 (70 to less than 90% of herbicidal effect and crop phytotoxicity) | herbicidal effect (index), Green Foxtail [8]: 4 (70 to less than 90% of herbicidal effect and crop phytotoxicity) | herbicidal effect (index), Slender Amaranth [9]: 5 (90% or more of herbicidal effect and crop phytotoxicity) | herbicidal effect (index), Velvetleaf [10]: 5 (90% or more of herbicidal effect and crop phytotoxicity) | herbicidal effect (index), Barnyardgrass [11]: 5 (90% or more of herbicidal effect and crop phytotoxicity)

CCCS(=O)(=O)Oc1c(C(=O)c2ccc(C(F)(F)F)n(-c3ccc(F)c(COC)c3)c2=O)cnn1C(C)C [IV-96]
herbicidal effect, Echinochloa oryzicola Vasing [1]: 5 (90% or more of herbicidal effect and crop phytotoxicity) | herbicidal effect, Scirpus juncoides Roxb. [2]: 4 (70 to less than 90% of herbicidal effect and crop phytotoxicity) | herbicidal effect, Monochoria vaginalis (Burm. f.) C. Presl [3]: 5 (90% or more of herbicidal effect and crop phytotoxicity) | herbicidal effect, Green Foxtail [4]: 5 (90% or more of herbicidal effect and crop phytotoxicity) | herbicidal effect, Slender Amaranth [5]: 4 (70 to less than 90% of herbicidal effect and crop phytotoxicity) | herbicidal effect, Velvetleaf [6]: 5 (90% or more of herbicidal effect and crop phytotoxicity) | herbicidal effect, Barnyardgrass [7]: 3 (50 to less than 70% of herbicidal effect and crop phytotoxicity) | herbicidal effect (index), Green Foxtail [8]: 3 (50 to less than 70% of herbicidal effect and crop phytotoxicity) | herbicidal effect (index), Slender Amaranth [9]: 4 (70 to less than 90% of herbicidal effect and crop phytotoxicity) | herbicidal effect (index), Velvetleaf [10]: 5 (90% or more of herbicidal effect and crop phytotoxicity) | herbicidal effect (index), Barnyardgrass [11]: 4 (70 to less than 90% of herbicidal effect and crop phytotoxicity)
